Tests used:
[1] = molecular target: T1, rabbit muscle glycogen phosphorylase a (RMGPa) (Oryctolagus cuniculus, UniProt P00489); experiment: Enzyme inhibition assay against rabbit muscle glycogen phosphorylase a (phosphate release from glucose-1-phosphate); format: biochemical; settings: mean ± S.D. of three determinations; NI means no inhibition
T1 sequence (P00489 2-843 limits assumed): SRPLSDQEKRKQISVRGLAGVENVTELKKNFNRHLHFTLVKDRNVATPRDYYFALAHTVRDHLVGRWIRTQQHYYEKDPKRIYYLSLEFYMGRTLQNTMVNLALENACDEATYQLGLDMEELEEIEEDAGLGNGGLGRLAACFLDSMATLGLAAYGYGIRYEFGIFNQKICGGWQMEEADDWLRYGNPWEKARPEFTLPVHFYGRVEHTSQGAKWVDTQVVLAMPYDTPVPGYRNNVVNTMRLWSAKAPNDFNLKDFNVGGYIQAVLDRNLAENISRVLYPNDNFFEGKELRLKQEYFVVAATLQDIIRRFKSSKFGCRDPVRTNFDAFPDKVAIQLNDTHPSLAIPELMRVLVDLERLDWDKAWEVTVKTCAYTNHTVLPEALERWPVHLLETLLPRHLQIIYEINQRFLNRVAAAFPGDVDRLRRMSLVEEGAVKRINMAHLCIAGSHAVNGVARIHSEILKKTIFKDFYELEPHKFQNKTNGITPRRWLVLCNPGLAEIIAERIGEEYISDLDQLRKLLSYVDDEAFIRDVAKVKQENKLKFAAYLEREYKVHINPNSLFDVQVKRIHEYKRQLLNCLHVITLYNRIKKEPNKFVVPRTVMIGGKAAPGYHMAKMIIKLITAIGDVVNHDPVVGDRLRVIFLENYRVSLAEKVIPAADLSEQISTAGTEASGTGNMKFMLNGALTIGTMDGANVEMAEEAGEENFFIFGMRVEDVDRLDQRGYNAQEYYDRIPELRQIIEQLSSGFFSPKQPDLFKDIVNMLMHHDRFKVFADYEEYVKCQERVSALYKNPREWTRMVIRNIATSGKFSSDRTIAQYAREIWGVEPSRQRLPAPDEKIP
Method: To understand the validity of the synthetic probes, the synthesized probes 1–3 were evaluated in an enzyme inhibition assay against rabbit muscle glycogen phosphorylase a (RMGPa). As described previously, the activity of RMGPa was measured through detecting the release of phosphate from glucose-1-phosphate in the direction of glycogen synthesis, based on the published method.
The inhibitory activity of the test compounds against RMGPa was monitored using a microplate reader (BIO-RAD, Bio-Rad Laboratories, Hercules, CA, USA), based on the published method. In brief, RMGPa activity was measured in the direction of glycogen synthesis by the release of phosphate from glucose-1-phosphate. Each test compound was dissolved in DMSO and diluted at different concentrations for IC50 determination. The enzyme was added to 100 μL of buffer containing 50 mM Hepes (pH = 7.2), 100 mM KCl, 2.5 mM MgCl2, 0.5 mM glucose-1-phosphate, 1 mg/mL glycogen, and the test compound in 96-well microplates (Costar, Corning Incorporated, Corning, NY, USA). After the addition of 150 μL of 1 M HCl containing 10 mg/mL ammonium molybdate and 0.38 mg/mL malachite green, reactions were run at 22 °C for 25 min, and then the phosphate absorbance was measured at 655 nm. The IC50 values were estimated by fitting the inhibition data to a dose-dependent curve using a logistic derivative equation.

[2] = system: serum proteomes prepared from rats with acute myocardial infarction; experiment: Photoaffinity labeling of serum proteomes, gel-based fluorescence imaging; format: binding, rat; settings: UV light 30 min
Method: Based on the results of the potency in the enzyme assay, probe 1 was selected and used throughout photolabeling studies (Figure 3). The serum proteomes prepared from rats with acute myocardial infarction were incubated with probe 1 at concentrations of […], and 300, 100, and 30 nM, respectively. The mixture was exposed to UV light for 30 min, and then was imaged using the Tanon-6100 Chemiluminescent Imaging system.
An attempt to semi-quantitatively analyze the serum-free GP level after an acute myocardial infarction was explored. Serum blanks were added in increasing quantities of RMGPa (0, 12.5, 25, 50, and 100 ng/mL at a final concentration) in the presence of an excess of probe 1 (10 μM). In the same way, probe 1 was added to the serum in an acute myocardial infarction model in a rat. […]
Blood samples prepared from rats with acute myocardial infarction were drawn from the abdominal aorta in rats after coronary ligation using a 23-gauge needle. […] The protein concentration of the suspension was measured according to the Bradford method. […] The band densities were calculated with Quantity One software 4.6.2 (Bio-Rad Laboratories, Inc., Hercules, CA, USA). […] The data were recorded on an LTQ-Orbitrap Fusion mass spectrometer (ThermoFisher Scientific Inc., Waltham, MA, USA) coupled to an Easy-nLC 1000 LC System (Thermo Fischer Scientic). […]

| IC50 [1] [µM] | melting point [°C] | RMGPa IC50 [1] | Structure (SMILES) | Labelling of protein bands with MW of about 90–100 kDa in semi-quantitative analysis ([2]; 10 μM probe, rat AMI serum and serum blanks with added RMGPa 0–100 ng/mL) | Labelling of protein band with MW of about 90–100 kDa (consistent with MW of GP) ([2]; probe at 10, 3, and 1 mM, and 300, 100, and 30 nM, 2.0 mg/mL proteomes) |
| --- | --- | --- | --- | --- | --- |
| 13.2 ± 5.87 | 151 to 153 | – | CN(C)c1cccc2c(S(=O)(=O)NCCCC[C@H](NC(=O)c3ccc(C(=O)c4ccccc4)cc3)C(=O)OCc3cn(CCOCCOCCOCCOC4CCN(C(=O)[C@H](Cc5ccc(F)cc5)NC(=O)c5cc6cc(Cl)ccc6[nH]5)CC4)nn3)cccc12 [Compound 1, N-[(S)-1-(4-{2-[2-(2-{2-[4-({[(S)-2-(4-Benzoylbenzamido)-6-(dansylamide)hexanoyl]oxy}methyl)-1H-1,2,3-triazol-1-yl]ethoxy}ethoxy)ethoxy]ethoxy}piperidin-1-yl)-3-(4-fluorophenyl)-1-oxopropan-2-yl]-5-chloro-1H-indole-2-carboxamide] | efficiently labeled | clearly labelled |
| – | 159 to 161 | no inhibitory activity | CN(C)c1cccc2c(S(=O)(=O)NCCCCC(NC(=O)c3ccc(C(=O)c4ccccc4)cc3)C(=O)N[C@@H](CCCCNC(=O)CCCC[C@@H]3SC[C@H]4NC(=O)N[C@@H]34)C(=O)OCc3cn(CCOCCOCCOCCOC4CCN(C(=O)[C@H](Cc5ccc(F)cc5)NC(=O)c5cc6cc(Cl)ccc6[nH]5)CC4)nn3)cccc12 (stereo partly drawn) [Compound 2, N-[(S)-1-(4-{2-[2-(2-{2-[4-({[(S)-2-[(S)-2-(4-Benzoylbenzamido)-6-(dansylamide)hexanamido]-6-(5-{(3aR,4S,6aS)-2-oxohexahydro-1H-thieno[3,4-d]imidazol-1-yl}pentanamido)hexanoyl]oxy}methyl)-1H-1,2,3-triazol-1-yl]ethoxy}ethoxy)ethoxy]ethoxy}piperidin-1-yl)-3-(4-fluorophenyl)-1-oxopropan-2-yl]-5-chloro-1H-indole-2-carboxamide] | – | – |
| – | 113 to 115 | – | [N-]=[N+]=NCC(=O)NCCCC[C@H](NC(=O)c1ccc(C(=O)c2ccccc2)cc1)C(=O)OCc1cn(CCOCCOCCOCCOC2CCN(C(=O)[C@H](Cc3ccc(F)cc3)NC(=O)c3cc4cc(Cl)ccc4[nH]3)CC2)nn1 [Compound 3, N-[(S)-1-(4-{2-[2-(2-{2-[4-({[(S)-2-(4-Benzoylbenzamido)-6-(2-azidoacetamido)hexanoyl]oxy}methyl)-1H-1,2,3-triazol-1-yl]ethoxy}ethoxy)ethoxy]ethoxy}piperidin-1-yl)-3-(4-fluorophenyl)-1-oxopropan-2-yl]-5-chloro-1H-indole-2-carboxamide] | – | – |
| 0.43 ± 0.16 | 103 to 105 | – | O=C(N[C@@H](Cc1ccc(F)cc1)C(=O)N1CCC(OCCOCCOCCOCCO)CC1)c1cc2cc(Cl)ccc2[nH]1 [Compound 11, N-{(S)-1-[4-(2-{2-[2-(2-Hydroxyethoxy)ethoxy]ethoxy}ethoxy)piperidin-1-yl]-3-(4-fluorophenyl)-1-oxopropan-2-yl}-5-chloro-1H-indole-2-carboxamide] | – | – |
